*1 amine or outer side, *2 acyl side, *3 side chain or, on linkers, in order; H or OH if unused. Where a SMILES comes first, the peptide text is derived from it. Bridges are numbered along the chain shown (N, C = ends). Roman numbers before positions name the chains, in order. [ ]: non-standard residue; d: D form. Actinocin(1to9) = Cc1c2oc3c(C)ccc(C(=O)[*:2])c3nc-2c(C(=O)[*:1])c(N)c1=O; NMeV = CN[C@H](C(=O)O)C(C)C; Sar = CNCC(=O)O
How the values were obtained:
Androgen receptor [1] = target: T1, Androgen receptor (Rattus norvegicus, UniProt P15207)
T1 sequence (P15207 whole entry): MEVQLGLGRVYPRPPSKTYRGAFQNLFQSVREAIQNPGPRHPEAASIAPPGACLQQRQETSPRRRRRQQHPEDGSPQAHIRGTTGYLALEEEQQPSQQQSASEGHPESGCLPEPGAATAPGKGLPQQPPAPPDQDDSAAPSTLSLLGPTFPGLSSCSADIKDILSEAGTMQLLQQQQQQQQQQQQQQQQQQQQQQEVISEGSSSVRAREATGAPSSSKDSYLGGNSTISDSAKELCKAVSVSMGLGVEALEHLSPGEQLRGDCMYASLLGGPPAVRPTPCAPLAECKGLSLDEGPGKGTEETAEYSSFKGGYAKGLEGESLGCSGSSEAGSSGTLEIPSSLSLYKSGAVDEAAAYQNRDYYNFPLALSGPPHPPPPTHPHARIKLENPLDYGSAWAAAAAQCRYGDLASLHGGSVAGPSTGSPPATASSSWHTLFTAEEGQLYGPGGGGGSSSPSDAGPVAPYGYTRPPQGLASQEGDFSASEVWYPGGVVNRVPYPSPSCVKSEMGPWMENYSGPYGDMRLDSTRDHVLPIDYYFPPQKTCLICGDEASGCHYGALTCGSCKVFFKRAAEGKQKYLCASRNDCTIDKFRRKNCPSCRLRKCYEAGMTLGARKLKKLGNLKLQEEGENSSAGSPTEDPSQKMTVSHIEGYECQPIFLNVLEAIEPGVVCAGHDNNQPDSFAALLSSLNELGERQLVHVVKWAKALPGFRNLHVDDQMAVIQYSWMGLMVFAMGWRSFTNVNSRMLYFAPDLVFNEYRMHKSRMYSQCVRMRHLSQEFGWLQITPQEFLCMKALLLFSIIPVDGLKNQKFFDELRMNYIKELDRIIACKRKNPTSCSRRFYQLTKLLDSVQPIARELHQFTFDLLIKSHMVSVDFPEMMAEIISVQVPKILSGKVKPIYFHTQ

Cytochrome P450 1A2 = target: T2, Cytochrome P450 1A2 (Homo sapiens, UniProt P05177)
T2 sequence (P05177 whole entry): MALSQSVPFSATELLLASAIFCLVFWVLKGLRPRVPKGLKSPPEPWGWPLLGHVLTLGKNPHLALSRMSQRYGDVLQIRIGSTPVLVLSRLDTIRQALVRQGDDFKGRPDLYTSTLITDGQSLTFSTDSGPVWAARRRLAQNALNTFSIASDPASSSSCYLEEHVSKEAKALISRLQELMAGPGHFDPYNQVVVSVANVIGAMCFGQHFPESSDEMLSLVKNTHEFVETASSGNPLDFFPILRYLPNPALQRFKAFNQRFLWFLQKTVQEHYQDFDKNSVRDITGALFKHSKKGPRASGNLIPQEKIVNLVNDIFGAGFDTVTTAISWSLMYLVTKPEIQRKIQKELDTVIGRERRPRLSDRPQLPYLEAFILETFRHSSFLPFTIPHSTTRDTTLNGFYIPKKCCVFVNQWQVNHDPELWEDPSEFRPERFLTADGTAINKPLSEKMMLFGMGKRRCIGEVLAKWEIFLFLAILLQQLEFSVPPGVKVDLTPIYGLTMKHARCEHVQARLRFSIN

Cytochrome P450 2D6 = Cytochrome P450 2D6 (Homo sapiens, UniProt P10635)
Chain of Cytochrome P450 2D6 (P10635 whole entry): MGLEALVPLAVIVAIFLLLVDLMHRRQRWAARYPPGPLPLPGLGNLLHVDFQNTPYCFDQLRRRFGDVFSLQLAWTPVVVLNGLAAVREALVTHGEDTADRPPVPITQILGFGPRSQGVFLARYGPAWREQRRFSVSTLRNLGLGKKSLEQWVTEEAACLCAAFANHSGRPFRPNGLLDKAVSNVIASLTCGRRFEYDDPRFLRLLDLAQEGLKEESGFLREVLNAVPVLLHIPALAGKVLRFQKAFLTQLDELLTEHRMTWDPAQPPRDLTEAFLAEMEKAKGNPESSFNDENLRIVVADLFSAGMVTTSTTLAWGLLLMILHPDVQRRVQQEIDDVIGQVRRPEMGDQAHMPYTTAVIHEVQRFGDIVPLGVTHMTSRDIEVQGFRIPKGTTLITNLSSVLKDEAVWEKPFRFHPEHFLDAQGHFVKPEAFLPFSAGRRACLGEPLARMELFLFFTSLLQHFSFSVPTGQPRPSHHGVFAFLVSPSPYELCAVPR

Cytochrome P450 2C19 = Cytochrome P450 2C19 (Homo sapiens, UniProt P33261)
Chain of Cytochrome P450 2C19 (P33261 whole entry): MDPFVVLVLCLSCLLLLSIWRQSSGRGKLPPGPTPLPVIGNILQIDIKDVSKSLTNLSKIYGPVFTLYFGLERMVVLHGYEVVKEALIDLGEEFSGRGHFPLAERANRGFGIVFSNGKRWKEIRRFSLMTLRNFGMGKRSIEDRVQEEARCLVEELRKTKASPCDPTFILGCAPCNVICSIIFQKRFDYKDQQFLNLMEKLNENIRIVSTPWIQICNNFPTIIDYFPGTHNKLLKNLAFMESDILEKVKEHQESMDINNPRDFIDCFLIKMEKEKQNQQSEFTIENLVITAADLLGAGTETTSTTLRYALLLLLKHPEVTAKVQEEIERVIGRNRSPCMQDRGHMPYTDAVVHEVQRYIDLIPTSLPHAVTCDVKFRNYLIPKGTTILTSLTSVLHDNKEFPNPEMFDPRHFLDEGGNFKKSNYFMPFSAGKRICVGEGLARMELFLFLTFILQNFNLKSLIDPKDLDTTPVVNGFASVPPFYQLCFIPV

Cytochrome P450 2C9 = Cytochrome P450 2C9 (Homo sapiens, UniProt P11712)
Chain of Cytochrome P450 2C9 (P11712 whole entry): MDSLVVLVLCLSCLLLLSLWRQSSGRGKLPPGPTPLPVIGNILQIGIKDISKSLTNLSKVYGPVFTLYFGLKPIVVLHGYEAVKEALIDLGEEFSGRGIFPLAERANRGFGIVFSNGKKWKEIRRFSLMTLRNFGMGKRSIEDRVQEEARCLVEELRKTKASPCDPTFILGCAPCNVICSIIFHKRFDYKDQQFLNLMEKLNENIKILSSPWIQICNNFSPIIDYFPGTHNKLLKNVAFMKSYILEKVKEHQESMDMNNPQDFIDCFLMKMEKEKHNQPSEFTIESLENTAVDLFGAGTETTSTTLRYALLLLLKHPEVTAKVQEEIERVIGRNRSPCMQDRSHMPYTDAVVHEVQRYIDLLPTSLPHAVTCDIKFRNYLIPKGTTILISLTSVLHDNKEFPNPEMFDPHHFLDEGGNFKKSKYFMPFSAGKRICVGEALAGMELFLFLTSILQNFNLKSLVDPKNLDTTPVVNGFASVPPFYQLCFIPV

Cytochrome P450 3A4 = Cytochrome P450 3A4 (Homo sapiens, UniProt P08684)
Chain of Cytochrome P450 3A4 (P08684 whole entry): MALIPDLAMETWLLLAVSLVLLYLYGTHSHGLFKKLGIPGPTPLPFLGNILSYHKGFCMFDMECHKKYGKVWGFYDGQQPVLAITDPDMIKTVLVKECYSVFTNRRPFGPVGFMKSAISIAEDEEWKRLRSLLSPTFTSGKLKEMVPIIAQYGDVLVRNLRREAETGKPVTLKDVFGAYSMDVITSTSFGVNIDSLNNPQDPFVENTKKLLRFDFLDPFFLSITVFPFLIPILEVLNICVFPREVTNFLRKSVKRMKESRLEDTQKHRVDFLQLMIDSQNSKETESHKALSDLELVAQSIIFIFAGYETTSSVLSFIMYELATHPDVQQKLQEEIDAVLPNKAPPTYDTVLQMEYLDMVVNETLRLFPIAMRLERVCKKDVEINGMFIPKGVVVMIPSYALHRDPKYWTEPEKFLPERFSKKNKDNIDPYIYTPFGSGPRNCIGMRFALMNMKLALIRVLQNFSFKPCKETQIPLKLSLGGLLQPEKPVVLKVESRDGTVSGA

Androgen receptor [2] = target: T1, Androgen receptor; remark: listed apart in the source
Glucocorticoid receptor = target: T3, Glucocorticoid receptor (Homo sapiens, UniProt P04150); test: biochemical
T3 sequence (P04150 whole entry): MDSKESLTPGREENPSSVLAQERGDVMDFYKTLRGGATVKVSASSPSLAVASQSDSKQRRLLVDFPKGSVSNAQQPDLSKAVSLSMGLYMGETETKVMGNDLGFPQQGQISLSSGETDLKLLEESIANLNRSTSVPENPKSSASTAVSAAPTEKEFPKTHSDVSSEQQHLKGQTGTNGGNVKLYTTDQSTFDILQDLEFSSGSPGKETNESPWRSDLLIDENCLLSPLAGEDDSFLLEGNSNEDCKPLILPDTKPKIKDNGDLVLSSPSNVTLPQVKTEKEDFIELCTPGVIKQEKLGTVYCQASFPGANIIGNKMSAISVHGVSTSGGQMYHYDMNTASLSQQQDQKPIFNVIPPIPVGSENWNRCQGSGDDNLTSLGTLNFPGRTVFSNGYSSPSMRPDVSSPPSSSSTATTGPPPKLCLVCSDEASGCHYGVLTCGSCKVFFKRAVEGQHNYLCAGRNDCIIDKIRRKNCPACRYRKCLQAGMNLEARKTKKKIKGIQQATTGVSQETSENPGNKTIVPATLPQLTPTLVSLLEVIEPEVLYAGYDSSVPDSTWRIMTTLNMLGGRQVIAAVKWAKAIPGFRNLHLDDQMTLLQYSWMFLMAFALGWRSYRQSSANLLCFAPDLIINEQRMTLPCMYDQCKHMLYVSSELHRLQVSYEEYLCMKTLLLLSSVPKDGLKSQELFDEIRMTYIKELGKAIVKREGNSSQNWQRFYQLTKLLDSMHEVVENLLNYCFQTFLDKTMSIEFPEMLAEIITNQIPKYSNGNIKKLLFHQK
Also: in other assays of this panel Not Active means under 50% inhibition at 10 µM.

Compound | IC50 (Androgen receptor [1]) | other results
CC(C)CN(C[C@@H](O)[C@H](Cc1ccccc1)NC(=O)O[C@H]1CCOC1)S(=O)(=O)c1ccc(N)cc1 | Not Active | 
NC(=O)N1c2ccccc2CCc2ccccc21 | Not Active | 
Cc1onc(O)c1CC(N)C(=O)O (racemic) [(R,S)-AMPA] | Not Active | 
Cc1ccc2cc3c(ccc4ccccc43)c3c2c1CC3 [3-METHYLCHOLANTHRENE] |  | IC50 (Cytochrome P450 1A2): 0.3 µM
Nc1c(Br)cc(Br)cc1CN[C@H]1CC[C@H](O)CC1 [AMBROXOL] | Not Active | 
CCC1(c2ccc(N)cc2)CCC(=O)NC1=O (stereo not drawn) [AMINOGLUTETHIMIDE] | Not Active | 
COc1ccc(C[C@H]2NC[C@H](O)[C@H]2OC(C)=O)cc1 [ANISOMYCIN] | Not Active | Ki (Androgen receptor [1]): Not Active
Nc1ncn([C@@H]2O[C@H](CO)[C@@H](O)[C@H]2O)c(=O)n1 [AZACITIDINE] | Not Active | 
CN(C)C(=O)Oc1cc(OC(=O)N(C)C)cc(C(O)CNC(C)(C)C)c1 (stereo not drawn) [BAMBUTEROL] | Not Active | IC50 (Cytochrome P450 2D6): 2 µM
c1ccc2c(c1)c1cccc3ccc4cccc2c4c31 [BENZO[E]PYRENE] | Not Active | IC50 (Cytochrome P450 1A2): 0.1 µM
CC(NC(C)(C)C)C(=O)c1cccc(Cl)c1 (stereo not drawn) [BUPROPION] |  | IC50 (Cytochrome P450 2C19): 2 µM
CN(Cc1ccc(C(C)(C)C)cc1)Cc1cccc2ccccc12 [BUTENAFINE] |  | IC50 (Cytochrome P450 2D6): 0.3 µM
C[C@H](CS)C(=O)N1CCC[C@H]1C(=O)O [CAPTOPRIL] | Not Active | 
Cc1ccc(-c2cc(C(F)(F)F)nn2-c2ccc(S(N)(=O)=O)cc2)cc1 [CELECOXIB] | Not Active | IC50 (Cytochrome P450 2D6): 1 µM
CC1=C2C(=CO[C@H](C)[C@H]2C)C(O)=C(C(=O)O)C1=O [CITRININ] | Not Active | 
CC(C)(C)NCC(O)c1cc(Cl)c(N)c(Cl)c1 (stereo not drawn) [CLENBUTEROL] | Not Active | 
Cc1cc(C(C#N)c2ccc(Cl)cc2)c(Cl)cc1NC(=O)c1cc(I)cc(I)c1O (stereo not drawn) [CLOSANTEL] |  | IC50 (Cytochrome P450 2C9): 2 µM
Cc1c2oc3c(C)ccc(C(=O)N[C@@H]4C(=O)N[C@H](C(C)C)C(=O)N5CCC[C@H]5C(=O)N(C)CC(=O)N(C)[C@@H](C(C)C)C(=O)O[C@@H]4C)c3nc-2c(C(=O)N[C@@H]2C(=O)N[C@H](C(C)C)C(=O)N3CCC[C@H]3C(=O)N(C)CC(=O)N(C)[C@@H](C(C)C)C(=O)O[C@@H]2C)c(N)c1=O [DACTINOMYCIN] (I: T[dV]P[Sar][NMeV] / II: T[dV]P[Sar][NMeV]; ester I:1-I:C, II:1-II:C; linker I:N-II:N via Actinocin(1to9)) | Not Active | 

Compound | IC50 (Androgen receptor [1]) | other results
CNCCCN1c2ccccc2CCc2ccccc21 [DESIPRAMINE] | Not Active | 
O=c1oc2ccccc2c(O)c1Cc1c(O)c2ccccc2oc1=O [DICUMAROL] | Not Active | 
C[C@H]1O[C@@H](O[C@H]2[C@@H](O)C[C@H](O[C@H]3[C@@H](O)C[C@H](O[C@H]4CC[C@@]5(C)[C@H](CC[C@@H]6[C@@H]5C[C@@H](O)[C@]5(C)[C@@H](C7=CC(=O)OC7)CC[C@]65O)C4)O[C@@H]3C)O[C@@H]2C)C[C@H](O)[C@@H]1O [DIGOXIN] | Not Active | 
CC(C)[C@@]1(NC(=O)[C@@H]2C[C@@H]3c4cccc5[nH]cc(c45)C[C@H]3N(C)C2)O[C@@]2(O)[C@@H]3CCCN3C(=O)[C@H](Cc3ccccc3)N2C1=O.CS(=O)(=O)O [DIHYDROERGOCRISTINE MESYLATE] |  | IC50 (Cytochrome P450 2C19): 3 µM; IC50 (Cytochrome P450 2C9): 3 µM
CC(C)[C@H]1C(=O)N2CCC[C@H]2[C@]2(O)O[C@](NC(=O)[C@@H]3C=C4c5cccc6[nH]cc(c56)C[C@H]4N(C)C3)(C(C)C)C(=O)N12 [ERGOCORNINE] | Not Active | IC50 (Cytochrome P450 3A4): 0.5 µM
C[C@]12CC[C@@H]3c4ccc(O)cc4CC[C@H]3[C@@H]1CCC2=O [ESTRONE] |  | IC50 (Androgen receptor [2]): 11.6 µM; Ki (Androgen receptor [2]): 7.74 µM
CCCCN1CCCC[C@H]1C(=O)Nc1c(C)cccc1C [LEVOBUPIVACAINE] | Not Active | IC50 (Cytochrome P450 2D6): 0.196 µM
CCCCc1nc(Cl)c(CO)n1Cc1ccc(-c2ccccc2-c2nnn[nH]2)cc1 [LOSARTAN] |  | IC50 (Cytochrome P450 2C9): 2.88 µM
C[C@]12CCC(=O)C=C1CC[C@@H]1[C@@H]2CC[C@@]2(C)[C@H]1CC[C@]2(C)O [METHYLTESTOSTERONE] |  | IC50 (Glucocorticoid receptor): 1.84 µM; Ki (Glucocorticoid receptor): 0.838 µM
C=C(C)C1(O)OC(=O)C=C1OC (stereo not drawn) [PENICILLIC ACID] | Not Active | 
CCCN1C[C@H](CSC)C[C@@H]2c3cccc4[nH]cc(c34)C[C@H]21 [PERGOLIDE] |  | IC50 (Cytochrome P450 2D6): 0.2 µM
C1CCC(C(CC2CCCCN2)C2CCCCC2)CC1 (stereo not drawn) [PERHEXILINE] | Not Active | IC50 (Cytochrome P450 2D6): 0.941 µM
CCOc1ccc(NC(C)=O)cc1 [PHENACETIN] | Not Active | 
Cc1ccc(N(CC2=NCCN2)c2cccc(O)c2)cc1 [PHENTOLAMINE] |  | IC50 (Cytochrome P450 2D6): 10 µM
CADMIUM ACETATE | Not Active | Ki (Androgen receptor [1]): Not Active
LEAD (II) ACETATE | Not Active | Ki (Androgen receptor [1]): Not Active
LIPOPOLYSACCHARIDE E. COLI O55:B5 | Not Active | Ki (Androgen receptor [1]): Not Active

From ChEMBL document CHEMBL1909046, “DrugMatrix in vitro pharmacology data”
